{
  "source": "patent US20230174523A1",
  "about": "“BENZENESULFONAMIDE DERIVATIVES AS TRAP1 MODULATORS AND USES THEREOF” (Amathus Therapeutics, Inc., priority 2020, published 2023)",
  "data": [
    {"target": "T1, TRAP1 enzyme (Homo sapiens, UniProt Q12931)", "T1 sequence (Q12931 60-704)": "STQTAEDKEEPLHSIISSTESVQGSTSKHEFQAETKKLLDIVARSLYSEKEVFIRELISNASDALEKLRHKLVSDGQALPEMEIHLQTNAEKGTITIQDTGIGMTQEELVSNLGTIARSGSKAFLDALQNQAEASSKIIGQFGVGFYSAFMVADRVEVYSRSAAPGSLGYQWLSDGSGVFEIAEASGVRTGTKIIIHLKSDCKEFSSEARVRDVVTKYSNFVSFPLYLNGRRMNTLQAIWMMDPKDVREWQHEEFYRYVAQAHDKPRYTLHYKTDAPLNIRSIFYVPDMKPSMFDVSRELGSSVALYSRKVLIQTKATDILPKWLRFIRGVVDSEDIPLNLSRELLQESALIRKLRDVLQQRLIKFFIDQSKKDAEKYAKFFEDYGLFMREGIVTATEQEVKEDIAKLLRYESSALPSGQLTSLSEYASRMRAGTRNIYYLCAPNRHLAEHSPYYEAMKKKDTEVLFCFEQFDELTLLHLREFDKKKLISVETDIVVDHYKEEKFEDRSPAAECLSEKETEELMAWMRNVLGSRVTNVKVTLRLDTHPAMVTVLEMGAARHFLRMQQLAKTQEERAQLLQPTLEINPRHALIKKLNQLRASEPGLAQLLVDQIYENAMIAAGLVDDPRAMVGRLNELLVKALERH", "test": "ADP Glo assay of TRAP1 ATPase activity", "format": "biochemical", "conditions": "TRAP1 ATPase activation, 150 nM Trap1, 20 μM ATP, geometric mean; read-out: ADP GLO DRC: GeoMean EC50", "method": "(§1) Potency of test compounds to modulate the ATPase activity of TRAP1 enzyme was evaluated using ADP Glo assay. The assay is based on quantification of the ADP generated from ATP in the ATPase reaction. The assay is performed in two steps: first, after the ATPase reaction, an equal volume of ADP-Glo™ Reagent is added to terminate the ATPase reaction and deplete the remaining ATP. Second, the Kinase Detection Reagent is added to simultaneously convert ADP to ATP and allow the newly synthesized ATP to be measured using a luciferase/luciferin reaction.\n(§2) All the assays were carried out in a 384-well Proxiplate. The buffer used was 25 mM Pipes pH-7.5, 40 mM KCl, 0.05 mM MgCl2, 0.025% BSA, 0.316 mM EGTA, 0.003% Empigen, 0.01% Igepal. 150 nM Trap1 enzyme was incubated with various concentrations of the test compound (0.79 μM-100 μM) at 37° C. for 30 mins (except in blank wells). 20 μM ATP was added to each well to start the reaction. The plate was spun for 1 min at 1200 rpm and then incubated at 37° C. for 60 mins. 5 μl of ADP Glo reagent was added to all the wells and spun the plate for 1 min at 1200 rpm and kept it on a shaker at ambient temperature for 60 mins. 10 μl of kinase detection mix was added to all the wells and the plate was read for Luminescence at 495 nm. The amount of ADP released was estimated from ATP/ADP standard curve generated at the same experimental conditions. Emax (Maximal percent activation) and EC50 (concentration for half maximal activation) were estimated by fitting the dose response data to a sigmoidal curve fitting equation using Graphpad Prism software V. 8.", "units": {"EC50": "µM"}, "values": [
      {"smiles": "O=C(Nc1ccc(F)c(S(=O)(=O)Nc2ccc(Cl)cc2)c1)c1nccnc1C(F)(F)F", "note": "[Compound 710]", "EC50": "10 to 20"},
      {"smiles": "COc1ccc(NC(=O)c2cccc(C(=O)N(C)C)c2)cc1S(=O)(=O)Nc1c(C)cccc1C", "note": "[Compound 1095]", "EC50": "20 to 100"},
      {"smiles": "COc1ccc(NC(=O)c2onc3c2CCCC3)cc1S(=O)(=O)Nc1c(C)cccc1C", "note": "[Compound 1056]", "EC50": "20 to 100"},
      {"smiles": "Cc1cc(C(=O)Nc2ccc(F)c(S(=O)(=O)Nc3ccc(Cl)cc3)c2)c2c(C)noc2n1", "note": "[Compound 736]", "EC50": "20 to 100"},
      {"smiles": "COc1ccc(NC(=O)c2cc(Cl)ncc2C(F)(F)F)cc1S(=O)(=O)Nc1c(C)cccc1C", "note": "[Compound 1274]", "EC50": "20 to 100"},
      {"smiles": "Cc1nccc(C(F)(F)F)c1C(=O)Nc1ccc(F)c(S(=O)(=O)Nc2ccc(Cl)cc2)c1", "note": "[Compound 734]", "EC50": "10 to 20"},
      {"smiles": "CCn1nc(C(C)C)cc1C(=O)Nc1ccc(F)c(S(=O)(=O)Nc2ccc(Cl)cc2)c1", "note": "[Compound 1282]", "EC50": "20 to 100"},
      {"smiles": "CCc1noc(CC)c1C(=O)Nc1ccc(F)c(S(=O)(=O)Nc2ccc(Cl)cc2)c1", "note": "[Compound 830]", "EC50": "20 to 100"},
      {"smiles": "CCCn1cc(C(=O)Nc2ccc(F)c(S(=O)(=O)Nc3ccc(Cl)cc3)c2)cn1", "note": "[Compound 683]", "EC50": "20 to 100"},
      {"smiles": "COc1ccc(NC(=O)c2cnc(-c3ccsc3)[nH]2)cc1S(=O)(=O)Nc1ccc(Cl)cc1", "note": "[Compound 1482]", "EC50": "< 10"},
      {"smiles": "COc1ccc(NC(=O)c2csc(C)c2C)cc1S(=O)(=O)Nc1c(C)cccc1C", "note": "[Compound 1005]", "EC50": "< 10"},
      {"smiles": "COc1ccc(NC(=O)c2cocn2)cc1S(=O)(=O)Nc1ccc(Cl)cc1", "note": "[Compound 1961]", "EC50": "20 to 100"},
      {"smiles": "COc1ccc(NC(=O)c2ccc3c(=O)n(C)cnc3c2)cc1S(=O)(=O)Nc1c(C)cccc1C", "note": "[Compound 1124]", "EC50": "10 to 20"},
      {"smiles": "O=C(Nc1ccc(F)c(S(=O)(=O)Nc2ccc(Cl)cc2)c1)c1cccc2cnccc12", "note": "[Compound 773]", "EC50": "10 to 20"},
      {"smiles": "COc1ccc(NC(=O)c2cc(Br)cnc2C)cc1S(=O)(=O)Nc1c(C)cccc1C", "note": "[Compound 1062]", "EC50": "20 to 100"},
      {"smiles": "COc1ccc(NC(=O)c2ccc(Cl)nc2C)cc1S(=O)(=O)Nc1c(C)cccc1C", "note": "[Compound 1057]", "EC50": "20 to 100"},
      {"smiles": "Cc1nc(C(=O)Nc2ccc(F)c(S(=O)(=O)Nc3ccc(Cl)cc3)c2)nn1-c1ccc(F)cc1", "note": "[Compound 835]", "EC50": "10 to 20"},
      {"smiles": "COc1ccc(NC(=O)c2ccc3sc(C)nc3c2)cc1S(=O)(=O)Nc1c(C)cccc1C", "note": "[Compound 1269]", "EC50": "10 to 20"},
      {"smiles": "O=C(Nc1ccc(F)c(S(=O)(=O)Nc2ccc(Cl)cc2)c1)c1cccc2c1OC(F)(F)O2", "note": "[Compound 737]", "EC50": "10 to 20"},
      {"smiles": "COc1ccc(NC(=O)c2cc(F)cc(Br)c2C)cc1S(=O)(=O)Nc1c(C)cccc1C", "note": "[Compound 1065]", "EC50": "< 10"},
      {"smiles": "COc1ccc(NC(=O)c2cccc(-n3cnnn3)c2)cc1S(=O)(=O)Nc1c(C)cccc1C", "note": "[Compound 1259]", "EC50": "20 to 100"},
      {"smiles": "COc1ccc(NC(=O)c2ncccc2C)cc1S(=O)(=O)Nc1c(C)cccc1C", "note": "[Compound 1167]", "EC50": "10 to 20"},
      {"smiles": "O=C(Nc1ccc(F)c(S(=O)(=O)Nc2ccc(Cl)cc2)c1)c1cnc(Cl)cc1Cl", "note": "[Compound 815]", "EC50": "10 to 20"},
      {"smiles": "COc1ccc(NC(=O)c2n[nH]c3c2CCCC3)cc1S(=O)(=O)Nc1c(C)cccc1C", "note": "[Compound 1235]", "EC50": "10 to 20"},
      {"smiles": "COc1ccc(NC(=O)c2cc(C)cs2)cc1S(=O)(=O)Nc1c(C)cccc1C", "note": "[Compound 1101]", "EC50": "10 to 20"}
    ]},
    {"target": "T1, TRAP1 enzyme", "test": "ADP Glo assay of TRAP1 ATPase activity", "format": "biochemical", "conditions": "read-out: ADP GLO DRC: Mean Emax", "method": "as §1, §2", "units": {"Emax": "%"}, "values": [
      {"smiles": "O=C(Nc1ccc(F)c(S(=O)(=O)Nc2ccc(Cl)cc2)c1)c1nccnc1C(F)(F)F", "note": "[Compound 710]", "Emax": "123 to 159"},
      {"smiles": "COc1ccc(NC(=O)c2cccc(C(=O)N(C)C)c2)cc1S(=O)(=O)Nc1c(C)cccc1C", "note": "[Compound 1095]", "Emax": "160 to 199"},
      {"smiles": "COc1ccc(NC(=O)c2onc3c2CCCC3)cc1S(=O)(=O)Nc1c(C)cccc1C", "note": "[Compound 1056]", "Emax": "123 to 159"},
      {"smiles": "Cc1cc(C(=O)Nc2ccc(F)c(S(=O)(=O)Nc3ccc(Cl)cc3)c2)c2c(C)noc2n1", "note": "[Compound 736]", "Emax": "200 to 300"},
      {"smiles": "COc1ccc(NC(=O)c2cc(Cl)ncc2C(F)(F)F)cc1S(=O)(=O)Nc1c(C)cccc1C", "note": "[Compound 1274]", "Emax": "123 to 159"},
      {"smiles": "Cc1nccc(C(F)(F)F)c1C(=O)Nc1ccc(F)c(S(=O)(=O)Nc2ccc(Cl)cc2)c1", "note": "[Compound 734]", "Emax": "123 to 159"},
      {"smiles": "CCn1nc(C(C)C)cc1C(=O)Nc1ccc(F)c(S(=O)(=O)Nc2ccc(Cl)cc2)c1", "note": "[Compound 1282]", "Emax": "123 to 159"},
      {"smiles": "CCc1noc(CC)c1C(=O)Nc1ccc(F)c(S(=O)(=O)Nc2ccc(Cl)cc2)c1", "note": "[Compound 830]", "Emax": "160 to 199"},
      {"smiles": "CCCn1cc(C(=O)Nc2ccc(F)c(S(=O)(=O)Nc3ccc(Cl)cc3)c2)cn1", "note": "[Compound 683]", "Emax": "200 to 300"},
      {"smiles": "COc1ccc(NC(=O)c2cnc(-c3ccsc3)[nH]2)cc1S(=O)(=O)Nc1ccc(Cl)cc1", "note": "[Compound 1482]", "Emax": "160 to 199"},
      {"smiles": "COc1ccc(NC(=O)c2csc(C)c2C)cc1S(=O)(=O)Nc1c(C)cccc1C", "note": "[Compound 1005]", "Emax": "200 to 300"},
      {"smiles": "COc1ccc(NC(=O)c2cocn2)cc1S(=O)(=O)Nc1ccc(Cl)cc1", "note": "[Compound 1961]", "Emax": "160 to 199"},
      {"smiles": "COc1ccc(NC(=O)c2ccc3c(=O)n(C)cnc3c2)cc1S(=O)(=O)Nc1c(C)cccc1C", "note": "[Compound 1124]", "Emax": "200 to 300"},
      {"smiles": "O=C(Nc1ccc(F)c(S(=O)(=O)Nc2ccc(Cl)cc2)c1)c1cccc2cnccc12", "note": "[Compound 773]", "Emax": "123 to 159"},
      {"smiles": "COc1ccc(NC(=O)c2cc(Br)cnc2C)cc1S(=O)(=O)Nc1c(C)cccc1C", "note": "[Compound 1062]", "Emax": "160 to 199"},
      {"smiles": "COc1ccc(NC(=O)c2ccc(Cl)nc2C)cc1S(=O)(=O)Nc1c(C)cccc1C", "note": "[Compound 1057]", "Emax": "160 to 199"},
      {"smiles": "Cc1nc(C(=O)Nc2ccc(F)c(S(=O)(=O)Nc3ccc(Cl)cc3)c2)nn1-c1ccc(F)cc1", "note": "[Compound 835]", "Emax": "123 to 159"},
      {"smiles": "COc1ccc(NC(=O)c2ccc3sc(C)nc3c2)cc1S(=O)(=O)Nc1c(C)cccc1C", "note": "[Compound 1269]", "Emax": "160 to 199"},
      {"smiles": "O=C(Nc1ccc(F)c(S(=O)(=O)Nc2ccc(Cl)cc2)c1)c1cccc2c1OC(F)(F)O2", "note": "[Compound 737]", "Emax": "123 to 159"},
      {"smiles": "COc1ccc(NC(=O)c2cc(F)cc(Br)c2C)cc1S(=O)(=O)Nc1c(C)cccc1C", "note": "[Compound 1065]", "Emax": "123 to 159"},
      {"smiles": "COc1ccc(NC(=O)c2cccc(-n3cnnn3)c2)cc1S(=O)(=O)Nc1c(C)cccc1C", "note": "[Compound 1259]", "Emax": "123 to 159"},
      {"smiles": "COc1ccc(NC(=O)c2ncccc2C)cc1S(=O)(=O)Nc1c(C)cccc1C", "note": "[Compound 1167]", "Emax": "123 to 159"},
      {"smiles": "O=C(Nc1ccc(F)c(S(=O)(=O)Nc2ccc(Cl)cc2)c1)c1cnc(Cl)cc1Cl", "note": "[Compound 815]", "Emax": "123 to 159"},
      {"smiles": "COc1ccc(NC(=O)c2n[nH]c3c2CCCC3)cc1S(=O)(=O)Nc1c(C)cccc1C", "note": "[Compound 1235]", "Emax": "200 to 300"},
      {"smiles": "COc1ccc(NC(=O)c2cc(C)cs2)cc1S(=O)(=O)Nc1c(C)cccc1C", "note": "[Compound 1101]", "Emax": "160 to 199"}
    ]}
  ]
}
